Experimental data published in patent publication US20060276520A1 (priority 2002, published 2006).
pIC50: −log10 of the molar value. “And” between values parts separate entries of the source, which are not always exact repeats. Equal values may be shown once. Read-outs that look alike come from different tables or passages of the source.

Legend:
Experiment in all cases: biochemical
MDM2/P53 = MDM2/P53 (Homo sapiens, UniProt Q00987)
APC2/APC11 [1] = biological target: T1, APC2/APC11 (Homo sapiens, UniProt Q9NYG5+Q9UJX6)
APC2/APC11 [2] = biological target: T1, APC2/APC11; remark: listed apart in the source
ROC1/CUL1 = ROC1/CUL1 (Homo sapiens, UniProt P62877+Q13616)
ROC1/CUL2 = ROC1/CUL2 (Homo sapiens, UniProt P62877+Q13617)
ROC2/CUL5 = biological target: T2, ROC2/CUL5 (Homo sapiens, UniProt Q93034+Q9UBF6)
T2 sequence (Q9UBF6 1-113): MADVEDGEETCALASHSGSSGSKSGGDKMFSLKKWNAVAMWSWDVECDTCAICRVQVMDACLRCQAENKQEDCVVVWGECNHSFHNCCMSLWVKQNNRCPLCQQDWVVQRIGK
T2 sequence (Q93034 1-780): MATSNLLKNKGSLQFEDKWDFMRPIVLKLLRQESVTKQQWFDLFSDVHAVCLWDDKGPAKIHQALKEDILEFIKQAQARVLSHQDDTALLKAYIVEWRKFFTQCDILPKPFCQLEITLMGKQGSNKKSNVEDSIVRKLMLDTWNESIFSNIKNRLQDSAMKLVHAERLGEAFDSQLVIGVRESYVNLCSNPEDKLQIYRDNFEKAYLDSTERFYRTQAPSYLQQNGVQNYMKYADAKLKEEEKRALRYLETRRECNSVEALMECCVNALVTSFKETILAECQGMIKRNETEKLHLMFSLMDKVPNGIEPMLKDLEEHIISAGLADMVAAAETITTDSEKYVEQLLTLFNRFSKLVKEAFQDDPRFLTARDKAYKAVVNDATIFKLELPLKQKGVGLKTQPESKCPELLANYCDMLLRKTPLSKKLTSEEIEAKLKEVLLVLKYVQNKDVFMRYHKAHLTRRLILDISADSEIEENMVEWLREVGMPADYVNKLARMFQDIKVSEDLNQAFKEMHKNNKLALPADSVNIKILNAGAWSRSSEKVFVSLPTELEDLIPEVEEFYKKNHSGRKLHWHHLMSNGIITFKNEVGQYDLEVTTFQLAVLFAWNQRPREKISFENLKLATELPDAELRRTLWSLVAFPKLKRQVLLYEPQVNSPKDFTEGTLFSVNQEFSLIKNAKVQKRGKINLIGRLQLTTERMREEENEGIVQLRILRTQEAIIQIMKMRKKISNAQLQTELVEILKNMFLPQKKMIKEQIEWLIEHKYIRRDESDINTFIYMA

T1 sequence (Q9UJX6 whole entry): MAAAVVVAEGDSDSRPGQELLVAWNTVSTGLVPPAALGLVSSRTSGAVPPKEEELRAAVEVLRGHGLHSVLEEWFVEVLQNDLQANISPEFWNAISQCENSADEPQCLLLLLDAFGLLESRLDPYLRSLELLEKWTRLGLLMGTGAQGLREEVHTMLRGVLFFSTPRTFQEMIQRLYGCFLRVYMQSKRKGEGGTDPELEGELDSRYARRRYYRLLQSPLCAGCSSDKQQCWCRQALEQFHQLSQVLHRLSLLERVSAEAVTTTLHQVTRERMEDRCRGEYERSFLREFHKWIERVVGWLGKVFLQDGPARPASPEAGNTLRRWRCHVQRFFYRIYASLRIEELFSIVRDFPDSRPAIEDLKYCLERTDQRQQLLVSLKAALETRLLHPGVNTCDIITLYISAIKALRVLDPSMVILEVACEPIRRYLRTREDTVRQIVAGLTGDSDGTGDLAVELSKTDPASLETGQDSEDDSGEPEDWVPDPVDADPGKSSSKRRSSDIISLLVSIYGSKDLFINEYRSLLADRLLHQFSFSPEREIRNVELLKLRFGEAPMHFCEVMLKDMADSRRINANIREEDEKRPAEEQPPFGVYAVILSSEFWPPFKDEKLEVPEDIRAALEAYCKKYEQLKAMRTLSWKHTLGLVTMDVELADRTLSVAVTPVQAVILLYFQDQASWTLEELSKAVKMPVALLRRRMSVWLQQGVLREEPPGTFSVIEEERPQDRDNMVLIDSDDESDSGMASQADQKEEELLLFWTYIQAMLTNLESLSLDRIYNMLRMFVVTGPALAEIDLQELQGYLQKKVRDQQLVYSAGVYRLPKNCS
T1 sequence (Q9NYG5 whole entry): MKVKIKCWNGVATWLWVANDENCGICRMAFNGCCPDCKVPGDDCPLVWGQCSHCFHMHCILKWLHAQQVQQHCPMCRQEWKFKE
Sequence of MDM2/P53 (Q00987 whole entry): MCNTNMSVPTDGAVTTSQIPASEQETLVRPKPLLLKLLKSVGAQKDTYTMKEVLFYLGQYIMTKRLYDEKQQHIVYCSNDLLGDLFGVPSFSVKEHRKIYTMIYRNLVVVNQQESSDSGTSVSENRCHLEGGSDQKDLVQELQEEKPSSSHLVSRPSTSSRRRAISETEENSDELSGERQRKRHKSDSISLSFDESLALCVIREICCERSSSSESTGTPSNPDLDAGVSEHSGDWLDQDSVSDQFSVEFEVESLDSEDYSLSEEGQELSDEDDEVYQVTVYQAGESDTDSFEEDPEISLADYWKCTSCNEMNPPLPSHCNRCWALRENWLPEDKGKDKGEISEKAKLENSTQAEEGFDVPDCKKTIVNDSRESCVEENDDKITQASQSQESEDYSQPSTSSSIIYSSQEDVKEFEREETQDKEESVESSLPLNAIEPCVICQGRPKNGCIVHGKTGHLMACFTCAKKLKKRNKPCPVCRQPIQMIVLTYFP
Sequence of ROC1/CUL1 (P62877 whole entry): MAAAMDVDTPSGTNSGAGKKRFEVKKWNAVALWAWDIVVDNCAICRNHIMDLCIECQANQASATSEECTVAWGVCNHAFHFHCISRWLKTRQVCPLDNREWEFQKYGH
Sequence of ROC1/CUL1 (Q13616 whole entry): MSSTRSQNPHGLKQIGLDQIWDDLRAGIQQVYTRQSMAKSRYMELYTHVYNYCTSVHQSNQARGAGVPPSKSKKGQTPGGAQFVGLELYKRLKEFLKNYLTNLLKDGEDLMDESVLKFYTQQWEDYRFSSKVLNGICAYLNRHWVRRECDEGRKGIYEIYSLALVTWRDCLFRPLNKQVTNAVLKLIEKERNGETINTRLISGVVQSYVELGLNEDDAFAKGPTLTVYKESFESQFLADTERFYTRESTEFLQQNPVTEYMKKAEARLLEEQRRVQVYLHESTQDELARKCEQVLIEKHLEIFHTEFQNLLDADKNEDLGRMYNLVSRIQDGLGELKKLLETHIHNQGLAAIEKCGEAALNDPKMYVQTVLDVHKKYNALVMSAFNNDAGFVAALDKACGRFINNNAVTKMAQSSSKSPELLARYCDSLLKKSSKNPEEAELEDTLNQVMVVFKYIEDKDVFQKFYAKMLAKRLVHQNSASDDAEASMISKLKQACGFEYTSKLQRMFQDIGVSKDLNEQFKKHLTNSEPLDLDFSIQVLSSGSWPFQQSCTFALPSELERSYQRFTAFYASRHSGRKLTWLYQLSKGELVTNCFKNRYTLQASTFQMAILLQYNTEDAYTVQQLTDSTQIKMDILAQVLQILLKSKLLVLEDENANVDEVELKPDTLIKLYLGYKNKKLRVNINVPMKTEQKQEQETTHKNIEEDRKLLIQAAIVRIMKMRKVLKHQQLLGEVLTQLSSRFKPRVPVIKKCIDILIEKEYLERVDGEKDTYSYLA
Sequence of ROC1/CUL2 (P62877 whole entry): as the sequence (P62877 whole entry) above
Sequence of ROC1/CUL2 (Q13617 whole entry): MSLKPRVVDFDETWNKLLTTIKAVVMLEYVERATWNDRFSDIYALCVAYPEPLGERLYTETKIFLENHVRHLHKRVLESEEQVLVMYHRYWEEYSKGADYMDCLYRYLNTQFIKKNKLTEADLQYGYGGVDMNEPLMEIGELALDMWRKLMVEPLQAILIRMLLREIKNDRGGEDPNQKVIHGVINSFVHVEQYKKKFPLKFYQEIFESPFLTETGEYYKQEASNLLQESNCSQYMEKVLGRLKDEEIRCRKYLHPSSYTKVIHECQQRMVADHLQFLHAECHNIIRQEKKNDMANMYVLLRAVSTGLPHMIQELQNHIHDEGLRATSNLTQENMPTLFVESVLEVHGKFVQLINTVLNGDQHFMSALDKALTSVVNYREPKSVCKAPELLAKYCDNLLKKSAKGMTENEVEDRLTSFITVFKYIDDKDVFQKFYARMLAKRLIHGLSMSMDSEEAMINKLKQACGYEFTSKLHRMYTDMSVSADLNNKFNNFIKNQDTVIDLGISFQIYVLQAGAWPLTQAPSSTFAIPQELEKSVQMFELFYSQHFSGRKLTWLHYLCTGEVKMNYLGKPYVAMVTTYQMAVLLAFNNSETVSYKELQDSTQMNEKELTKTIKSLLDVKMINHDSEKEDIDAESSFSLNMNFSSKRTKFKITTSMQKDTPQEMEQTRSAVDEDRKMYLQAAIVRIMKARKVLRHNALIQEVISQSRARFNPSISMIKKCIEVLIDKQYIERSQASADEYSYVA

| pIC50 (MDM2/P53) | pIC50 (APC2/APC11 [1]) | Compound | other results |
| --- | --- | --- | --- |
| 5.93 | 6.96 | COc1ccc(CN2C(=O)/C(=C/c3ccc(-c4ccccc4Cl)o3)SC2=S)cc1 [Compound 274, (5Z)-5-{[5-(2-chlorophenyl)-2-furyl]methylene}-3-(4-methoxybenzyl)-2-thioxo-11,3-thiazolidin-4-one] |  |
|  | 5.70 | COc1ccc(-c2ccc(/C=C3/SC(=S)NC3=O)o2)cc1Cl [Compound 172, (5E)-5-{[5-(3-chloro-4-methoxyphenyl)-2-furyl]methylene}-2-thioxo-1,3-thiazolidin-4-one] | pIC50 (APC2/APC11 [2]): 5.70 |
| 5.94 | 6.49 | O=C1/C(=C/c2ccc(-c3ccccc3Cl)o2)SC(=S)N1CCc1cccs1 [Compound 275, (5Z)-5-{[5-(2-chlorophenyl)-2-furyl]methylene}-3-[2-(2-thienyl)ethyl]-2-thioxo-1,3-thiazolidin-4-one] |  |
| 6.60 | 6.25 | O=C1/C(=C/c2ccc(-c3ccccc3Cl)o2)SC(=S)N1Cc1ccco1 [Compound 280, (5Z)-5-{[5-(2-chlorophenyl)-2-furyl]methylene}-3-(2-furylmethyl)-2-thioxo-1,3-thiazolidin-4-one] |  |
| 6.03 | 6.39 | CC(C)(C)OC(=O)[C@H](Cc1ccccc1)NC(=O)CN1C(=O)/C(=C/c2ccc(-c3ccccc3Cl)o2)SC1=S [Compound 301, tert-butyl N-[((5Z)-5-{[5-(2-chlorophenyl)-2-furyl]methylene}-4-oxo-2-thioxo-1,3-thiazolidin-3-yl)acetyl]phenylalaninate] |  |

More lines, now with the values behind:

| Compound | pIC50 (MDM2/P53) | pIC50 (APC2/APC11 [1]) | other results |
| --- | --- | --- | --- |
| O=C(O)CN1C(=O)/C(=C\c2ccc(-c3ccc(Cl)c(Cl)c3)o2)SC1=S [Compound 82, ((5E)-5-{[5-(3,4-dichlorophenyl)-2-furyl]methylene}-4-oxo-2-thioxo-1,3-thiazolidin-3-yl)acetic acid] | 5.82 | 5.30 |  |
| O=C(O)c1cccc(-c2ccc(/C=C3/SC(=S)N(c4cccc(Cl)c4)C3=O)o2)c1 [Compound 46, 3-(5-{(E)-[3-(3-chlorophenyl)-4-oxo-2-thioxo-1,3-thiazolidin-5-ylidene]methyl}-2-furyl)benzoic acid] | 5.31 | 6.04 |  |
| C=CCN1C(=O)/C(=C/c2ccc(-c3cccc(Cl)c3)o2)SC1=S [Compound 284, (5Z)-3-allyl-5-{[5-(3-chlorophenyl)-2-furyl]methylene}-2-thioxo-1,3-thiazolidin-4-one] |  |  | pIC50 (ROC1/CUL1): 6.10; pIC50 (ROC1/CUL2): 6.10; pIC50 (ROC2/CUL5): 6.70 |
| O=C1/C(=C\c2ccc(-c3cccc(C(F)(F)F)c3)o2)SC(=S)N1Cc1ccco1 [Compound 55, (5E)-3-(2-furylmethyl)-2-thioxo-5-({5-[3-(trifluoromethyl)phenyl]-2-furyl}methylene)-1,3-thiazolidin-4-one] |  |  | pIC50 (APC2/APC11 [2]): 5.40 and 5.00 |
| O=C1/C(=C\c2ccc(-c3cccc(C(F)(F)F)c3)o2)SC(=S)N1Cc1ccccc1 [Compound 54, (5E)-3-benzyl-2-thioxo-5-({5-[3-(trifluoromethyl)phenyl]-2-furyl}methylene)-1,3-thiazolidin-4-one] | 7.13 | 7.46 |  |
| CN1C(=O)/C(=C\c2ccc(-c3cccc(Br)c3)o2)SC1=S [Compound 50, (5E)-5-{[5-(3-bromophenyl)-2-furyl]methylene]-3-methyl-2-thioxo-1,3-thiazolidin-4-one] | 5.57 | 5.43 |  |
| COc1ccc(N2C(=O)/C(=C\c3ccc(-c4ccc(Br)cc4)o3)SC2=S)cc1 [Compound 96, (5E)-5-{[5-(4-bromophenyl)-2-furyl]methylene}-3-(4-methoxyphenyl)-2-thioxo-1,3-thiazolidin-4-one] | 6.25 | 5.00 |  |
| C=CCN1C(=O)C(Cc2ccc(-c3ccccc3Cl)o2)SC1=S (stereo not shown) [Compound 304, 3-allyl-5-{[5-(2-chlorophenyl)-2-furyl]methyl}-2-thioxo-1,3-thiazolidin-4-one] |  |  | pIC50 (ROC1/CUL1): 6.00; pIC50 (ROC1/CUL2): 6.00; pIC50 (ROC2/CUL5): 6.10 |
| Cc1c(N2C(=O)/C(=C\c3ccc(-c4ccc(Br)cc4)o3)SC2=S)c(=O)n(-c2ccccc2)n1C [Compound 51, (5E)-5-{[5-(4-bromophenyl)-2-furyl]methylene}-3-(1,5-dimethyl-3-oxo-2-phenyl-2,3-dihydro-1H-pyrazol-4-yl)-2-thioxo-1,3-thiazolidin-4-one] | 5.03 | 4.92 |  |
| CN1C(=O)/C(=C/c2ccc(-c3ccc(S(N)(=O)=O)cc3)o2)SC1=S [Compound 23, 4-{5-[(Z)-(3-methyl-4-oxo-2-thioxo-1,3-thiazolidin-5-ylidene)methyl]-2-furyl}benzenezulffonamide] | 5.10 | 5.29 |  |
